A word on the IC50: it is the point on the concentration scale where inhibition reaches its midpoint. As usually defined, the ΔTm is the shift of the melting midpoint relative to a reference. As a reminder, the Kd is the concentration at which binding is half-saturated. The term half-life denotes the time in which the quantity being followed falls by half.

Data set [1] deals with T1, Bromodomain-containing protein 4 (Homo sapiens, UniProt O60885). Nature of the data set: Inhibition of C-terminal His6-tagged BRD4 BD2 (unknown origin) using H-YSGRGK(Ac)GGK(Ac)GLGK(Ac)-GGAK(Ac)RHRK-Biotin-OH as substrate incubated for 1 hrs by HTRF assay. A general note: TR-FRET usually uses a lanthanide donor and a delayed reading to cut background.
Data set [2] addresses SWI/SNF-related matrix-associated actin-dependent regulator of chromatin subfamily A member 2 (Homo sapiens) (UniProt P51531). The data set is described as follows: Binding affinity to SMARCA2B (unknown origin) assessed as change in melting temperature at 100 uM incubated for 30 mins by thermal shift assay.
For data set [3], the target named is T2, Bromodomain-containing protein 3 (Homo sapiens, UniProt Q15059). Nature of the data set: Binding affinity to His6-fused human BRD3 BD1 assessed as dissociation constant in PBS incubated for 1 hrs by biolayer interferometry analysis. Background: BLI is a label-free optical method that tracks binding on a fibre tip over time.
The target of data set [4] is Transcription initiation factor TFIID subunit 1 (Homo sapiens) (UniProt P21675). The data set is described as follows: Binding affinity to TAF1 BD1(unknown origin) assessed as change in melting temperature at 100 uM incubated for 30 mins by thermal shift assay.
The target of data set [5] is SWI/SNF-related matrix-associated actin-dependent regulator of chromatin subfamily A member 2 (Homo sapiens) (UniProt P51531). The data set is described as follows: Binding affinity to SMARCA2A (unknown origin) assessed as change in melting temperature at 100 uM incubated for 30 mins by thermal shift assay.
Data set [6] concerns the target T3, Bromodomain-containing protein 2 (Homo sapiens, UniProt P25440). Nature of the data set: Inhibition of C-terminal His6-tagged BRD2 BD2 (unknown origin) using H-YSGRGK(Ac)GGK(Ac)GLGK(Ac)-GGAK(Ac)RHRK-Biotin-OH as substrate incubated for 1 hrs by HTRF assay.
The target in data set [7] is T3, Bromodomain-containing protein 2. The data set is described as follows: Binding affinity to His6-fused BRD2 BD2 (unknown origin) assessed as dissociation constant in PBS incubated for 1 hrs by biolayer interferometry analysis.
Data set [8] concerns the target T4, Peregrin (Homo sapiens) (UniProt P55201).
T4 sequence (whole entry): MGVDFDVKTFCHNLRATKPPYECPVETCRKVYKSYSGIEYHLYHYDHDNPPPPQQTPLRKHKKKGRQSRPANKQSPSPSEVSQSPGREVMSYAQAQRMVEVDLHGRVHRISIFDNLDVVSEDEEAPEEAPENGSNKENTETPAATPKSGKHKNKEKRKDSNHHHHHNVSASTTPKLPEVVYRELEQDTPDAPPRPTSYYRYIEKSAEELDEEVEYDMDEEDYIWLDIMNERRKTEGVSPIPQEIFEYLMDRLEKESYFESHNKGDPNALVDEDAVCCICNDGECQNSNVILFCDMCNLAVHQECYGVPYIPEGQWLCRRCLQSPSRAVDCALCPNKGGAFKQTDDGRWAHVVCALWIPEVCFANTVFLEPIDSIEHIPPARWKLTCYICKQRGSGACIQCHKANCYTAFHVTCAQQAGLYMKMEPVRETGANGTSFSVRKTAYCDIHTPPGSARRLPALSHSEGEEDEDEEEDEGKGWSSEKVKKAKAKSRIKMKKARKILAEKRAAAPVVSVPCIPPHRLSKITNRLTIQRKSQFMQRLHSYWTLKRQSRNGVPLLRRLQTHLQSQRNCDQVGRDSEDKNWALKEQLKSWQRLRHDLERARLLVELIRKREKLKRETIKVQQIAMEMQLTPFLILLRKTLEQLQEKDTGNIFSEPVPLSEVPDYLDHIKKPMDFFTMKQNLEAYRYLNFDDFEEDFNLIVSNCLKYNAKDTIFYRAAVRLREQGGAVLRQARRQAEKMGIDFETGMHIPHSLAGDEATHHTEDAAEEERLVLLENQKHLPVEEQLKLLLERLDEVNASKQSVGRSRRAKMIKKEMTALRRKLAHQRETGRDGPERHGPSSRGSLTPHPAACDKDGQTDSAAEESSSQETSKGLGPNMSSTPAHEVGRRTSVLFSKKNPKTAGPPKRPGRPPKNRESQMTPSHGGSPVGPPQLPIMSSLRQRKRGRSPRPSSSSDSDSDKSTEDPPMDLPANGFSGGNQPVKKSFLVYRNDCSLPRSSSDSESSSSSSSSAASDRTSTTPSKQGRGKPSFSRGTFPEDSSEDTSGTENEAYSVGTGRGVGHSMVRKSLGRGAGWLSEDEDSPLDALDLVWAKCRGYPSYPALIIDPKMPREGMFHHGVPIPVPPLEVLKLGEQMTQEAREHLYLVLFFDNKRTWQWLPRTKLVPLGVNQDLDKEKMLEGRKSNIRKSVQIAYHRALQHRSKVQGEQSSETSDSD
Nature of the data set: Binding affinity to BRPF1 (unknown origin) assessed as change in melting temperature at 100 uM incubated for 30 mins by thermal shift assay.

The target of data set [9] is T5, Bromodomain testis-specific protein (Homo sapiens, UniProt Q58F21). The data set is described as follows: Binding affinity to His6-fused BRDT BD1 (unknown origin) assessed as dissociation constant in PBS incubated for 1 hrs by biolayer interferometry analysis.
The target of data set [10] is T2, Bromodomain-containing protein 3. The data set is described as follows: Inhibition of C-terminal His6-tagged BRD3 BD2 (unknown origin) using H-YSGRGK(Ac)GGK(Ac)GLGK(Ac)-GGAK(Ac)RHRK-Biotin-OH as substrate incubated for 1 hrs by HTRF assay.
For data set [11], the target named is T5, Bromodomain testis-specific protein. The data set is described as follows: Binding affinity to His6-fused BRDT BD2 (unknown origin) assessed as dissociation constant in PBS incubated for 1 hrs by biolayer interferometry analysis.
Data set [12] concerns the target T3, Bromodomain-containing protein 2. The data set is described as follows: Binding affinity to His6-fused BRD2 BD1 (unknown origin) assessed as dissociation constant in PBS incubated for 1 hrs by biolayer interferometry analysis.
In data set [13] the target is T2, Bromodomain-containing protein 3. Nature of the data set: Binding affinity to His6-fused BRD3 BD2 (unknown origin) assessed as dissociation constant in PBS incubated for 1 hrs by biolayer interferometry analysis.
Data set [14] deals with Transcription initiation factor TFIID subunit 1 (Homo sapiens) (UniProt P21675). The data set is described as follows: Binding affinity to TAF1 BD2 (unknown origin) assessed as change in melting temperature at 100 uM incubated for 30 mins by thermal shift assay.
The target of data set [15] is T1, Bromodomain-containing protein 4. Nature of the data set: Binding affinity to His6-fused BRD4 BD2 (unknown origin) assessed as dissociation constant in PBS incubated for 1 hrs by biolayer interferometry analysis.
The test system of data set [16] is DU-145. Nature of the data set: Antiproliferative activity against AR-negative human DU-145 cells assessed as cell growth inhibition incubated for 72 hrs by Cell titre Glo-luminiscence cell viability assay. The following applies: DU-145, 72 h. In kind it is functional, cell-based.
A short description of data set [17]: Metabolic stability in rat hepatocytes assessed as hepatic clearance at 1 uM measured up to 60 mins in presence of NADPH by HPLC-MS/MS analysis. In kind it is ADME, cell-based, Hepatocyte.
The test system of data set [18] is U2OS. The data set is described as follows: Antiproliferative activity against human U2OS cells assessed as cell growth inhibition incubated for 72 hrs by Cell titre Glo-luminiscence cell viability assay. In kind it is functional, cell-based.
A short description of data set [19]: Metabolic stability in rat liver microsomes assessed as half life at 1 uM measured up to 60 mins in presence of NADPH by HPLC-MS/MS analysis. Type of data set: ADME, Microsome. On the technique in general: Microsomes from liver hold many membrane-bound enzymes, among them those of drug oxidation.
Data set [20] has as its system MV4-11. Nature of the data set: Antiproliferative activity against human MV4-11 cells assessed as cell growth inhibition incubated for 120 hrs by Cell titre Glo-luminiscence cell viability assay. Type of data set: functional, cell-based.
Data set [21] in a line: Metabolic stability in human liver microsomes assessed as half life at 1 uM measured up to 60 mins in presence of NADPH by HPLC-MS/MS analysis. In kind it is ADME, Microsome.

SWI/SNF-related matrix-associated actin-dependent regulator of chromatin subfamily A member 2 (Homo sapiens), sequence (P51531 whole entry, the tested form may be a part): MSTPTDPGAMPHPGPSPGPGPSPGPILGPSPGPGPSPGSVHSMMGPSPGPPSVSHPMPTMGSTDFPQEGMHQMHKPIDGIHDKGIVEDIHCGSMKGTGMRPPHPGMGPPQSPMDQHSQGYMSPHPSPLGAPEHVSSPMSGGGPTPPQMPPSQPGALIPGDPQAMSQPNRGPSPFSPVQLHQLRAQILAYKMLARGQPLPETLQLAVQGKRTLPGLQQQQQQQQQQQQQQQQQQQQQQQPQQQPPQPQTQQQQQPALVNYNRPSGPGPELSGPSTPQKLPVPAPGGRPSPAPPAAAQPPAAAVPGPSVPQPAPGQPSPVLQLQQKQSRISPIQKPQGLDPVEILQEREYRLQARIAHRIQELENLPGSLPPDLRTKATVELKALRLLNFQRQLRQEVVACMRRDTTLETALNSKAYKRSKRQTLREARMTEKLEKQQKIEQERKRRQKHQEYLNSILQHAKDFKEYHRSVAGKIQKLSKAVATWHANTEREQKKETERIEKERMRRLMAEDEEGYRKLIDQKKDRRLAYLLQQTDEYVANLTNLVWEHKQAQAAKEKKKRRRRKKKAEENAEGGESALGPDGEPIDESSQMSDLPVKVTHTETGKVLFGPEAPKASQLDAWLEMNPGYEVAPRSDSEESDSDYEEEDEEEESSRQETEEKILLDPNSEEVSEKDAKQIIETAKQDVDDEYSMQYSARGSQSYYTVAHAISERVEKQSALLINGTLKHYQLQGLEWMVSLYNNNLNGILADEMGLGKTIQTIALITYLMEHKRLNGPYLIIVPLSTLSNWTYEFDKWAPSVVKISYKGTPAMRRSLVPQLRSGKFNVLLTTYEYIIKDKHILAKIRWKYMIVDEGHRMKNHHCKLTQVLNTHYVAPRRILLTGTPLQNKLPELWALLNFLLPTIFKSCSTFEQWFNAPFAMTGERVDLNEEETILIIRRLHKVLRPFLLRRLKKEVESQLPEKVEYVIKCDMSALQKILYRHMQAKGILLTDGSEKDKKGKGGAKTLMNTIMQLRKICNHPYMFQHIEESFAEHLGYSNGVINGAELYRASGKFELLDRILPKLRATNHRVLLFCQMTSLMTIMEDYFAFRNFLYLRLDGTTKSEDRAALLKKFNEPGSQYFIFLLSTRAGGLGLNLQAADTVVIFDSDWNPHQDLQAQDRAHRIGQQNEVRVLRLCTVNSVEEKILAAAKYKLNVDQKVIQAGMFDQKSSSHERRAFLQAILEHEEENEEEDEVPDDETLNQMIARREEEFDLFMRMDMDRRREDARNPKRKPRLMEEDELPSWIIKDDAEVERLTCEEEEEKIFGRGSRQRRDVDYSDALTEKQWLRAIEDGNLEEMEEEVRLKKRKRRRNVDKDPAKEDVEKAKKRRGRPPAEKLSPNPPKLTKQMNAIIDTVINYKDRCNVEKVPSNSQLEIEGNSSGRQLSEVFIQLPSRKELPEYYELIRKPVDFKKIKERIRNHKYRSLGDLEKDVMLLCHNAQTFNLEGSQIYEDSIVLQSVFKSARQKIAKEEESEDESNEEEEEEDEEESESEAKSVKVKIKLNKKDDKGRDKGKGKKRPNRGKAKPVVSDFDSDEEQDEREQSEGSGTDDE
T3 sequence (P25440 whole entry, the tested form may be a part): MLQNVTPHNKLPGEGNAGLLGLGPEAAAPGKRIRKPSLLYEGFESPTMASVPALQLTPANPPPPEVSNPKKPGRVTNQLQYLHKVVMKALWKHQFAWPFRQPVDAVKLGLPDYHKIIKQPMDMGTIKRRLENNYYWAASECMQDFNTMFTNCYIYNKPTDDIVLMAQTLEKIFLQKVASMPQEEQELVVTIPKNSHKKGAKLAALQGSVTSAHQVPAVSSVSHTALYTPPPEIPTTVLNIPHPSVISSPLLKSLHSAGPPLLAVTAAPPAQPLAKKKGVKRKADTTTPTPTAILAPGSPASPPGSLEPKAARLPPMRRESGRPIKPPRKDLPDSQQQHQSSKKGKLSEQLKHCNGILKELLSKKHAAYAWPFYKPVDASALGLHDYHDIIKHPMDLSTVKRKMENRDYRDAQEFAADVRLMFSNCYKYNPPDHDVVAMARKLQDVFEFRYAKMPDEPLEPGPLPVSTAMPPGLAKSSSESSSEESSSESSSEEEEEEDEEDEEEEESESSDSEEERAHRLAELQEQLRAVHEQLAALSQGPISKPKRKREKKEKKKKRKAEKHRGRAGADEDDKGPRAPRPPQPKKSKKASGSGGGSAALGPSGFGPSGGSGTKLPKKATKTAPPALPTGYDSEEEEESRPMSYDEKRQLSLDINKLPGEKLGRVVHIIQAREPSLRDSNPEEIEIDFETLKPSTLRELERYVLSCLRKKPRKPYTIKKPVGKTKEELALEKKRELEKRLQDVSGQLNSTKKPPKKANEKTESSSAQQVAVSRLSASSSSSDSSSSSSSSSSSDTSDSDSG
T2 sequence (Q15059 whole entry, the tested form may be a part): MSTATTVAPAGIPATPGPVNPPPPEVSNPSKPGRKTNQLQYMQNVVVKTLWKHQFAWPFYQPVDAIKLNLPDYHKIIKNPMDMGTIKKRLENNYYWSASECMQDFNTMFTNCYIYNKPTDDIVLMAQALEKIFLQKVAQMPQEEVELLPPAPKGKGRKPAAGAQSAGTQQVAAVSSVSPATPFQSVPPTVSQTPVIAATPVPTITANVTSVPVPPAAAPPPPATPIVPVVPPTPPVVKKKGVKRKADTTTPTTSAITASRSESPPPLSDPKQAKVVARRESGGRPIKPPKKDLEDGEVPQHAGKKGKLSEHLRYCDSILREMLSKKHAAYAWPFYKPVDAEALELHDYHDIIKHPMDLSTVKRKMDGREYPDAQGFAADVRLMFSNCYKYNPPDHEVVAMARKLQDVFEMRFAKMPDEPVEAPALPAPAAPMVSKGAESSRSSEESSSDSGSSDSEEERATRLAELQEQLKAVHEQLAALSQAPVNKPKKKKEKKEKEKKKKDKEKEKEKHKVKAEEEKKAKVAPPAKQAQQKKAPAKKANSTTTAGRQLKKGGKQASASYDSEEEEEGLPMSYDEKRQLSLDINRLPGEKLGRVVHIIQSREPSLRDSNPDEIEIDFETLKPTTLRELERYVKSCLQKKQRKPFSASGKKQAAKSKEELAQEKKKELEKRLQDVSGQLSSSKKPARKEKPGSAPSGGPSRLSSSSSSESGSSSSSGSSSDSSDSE
Transcription initiation factor TFIID subunit 1 (Homo sapiens), sequence (P21675 whole entry, the tested form may be a part): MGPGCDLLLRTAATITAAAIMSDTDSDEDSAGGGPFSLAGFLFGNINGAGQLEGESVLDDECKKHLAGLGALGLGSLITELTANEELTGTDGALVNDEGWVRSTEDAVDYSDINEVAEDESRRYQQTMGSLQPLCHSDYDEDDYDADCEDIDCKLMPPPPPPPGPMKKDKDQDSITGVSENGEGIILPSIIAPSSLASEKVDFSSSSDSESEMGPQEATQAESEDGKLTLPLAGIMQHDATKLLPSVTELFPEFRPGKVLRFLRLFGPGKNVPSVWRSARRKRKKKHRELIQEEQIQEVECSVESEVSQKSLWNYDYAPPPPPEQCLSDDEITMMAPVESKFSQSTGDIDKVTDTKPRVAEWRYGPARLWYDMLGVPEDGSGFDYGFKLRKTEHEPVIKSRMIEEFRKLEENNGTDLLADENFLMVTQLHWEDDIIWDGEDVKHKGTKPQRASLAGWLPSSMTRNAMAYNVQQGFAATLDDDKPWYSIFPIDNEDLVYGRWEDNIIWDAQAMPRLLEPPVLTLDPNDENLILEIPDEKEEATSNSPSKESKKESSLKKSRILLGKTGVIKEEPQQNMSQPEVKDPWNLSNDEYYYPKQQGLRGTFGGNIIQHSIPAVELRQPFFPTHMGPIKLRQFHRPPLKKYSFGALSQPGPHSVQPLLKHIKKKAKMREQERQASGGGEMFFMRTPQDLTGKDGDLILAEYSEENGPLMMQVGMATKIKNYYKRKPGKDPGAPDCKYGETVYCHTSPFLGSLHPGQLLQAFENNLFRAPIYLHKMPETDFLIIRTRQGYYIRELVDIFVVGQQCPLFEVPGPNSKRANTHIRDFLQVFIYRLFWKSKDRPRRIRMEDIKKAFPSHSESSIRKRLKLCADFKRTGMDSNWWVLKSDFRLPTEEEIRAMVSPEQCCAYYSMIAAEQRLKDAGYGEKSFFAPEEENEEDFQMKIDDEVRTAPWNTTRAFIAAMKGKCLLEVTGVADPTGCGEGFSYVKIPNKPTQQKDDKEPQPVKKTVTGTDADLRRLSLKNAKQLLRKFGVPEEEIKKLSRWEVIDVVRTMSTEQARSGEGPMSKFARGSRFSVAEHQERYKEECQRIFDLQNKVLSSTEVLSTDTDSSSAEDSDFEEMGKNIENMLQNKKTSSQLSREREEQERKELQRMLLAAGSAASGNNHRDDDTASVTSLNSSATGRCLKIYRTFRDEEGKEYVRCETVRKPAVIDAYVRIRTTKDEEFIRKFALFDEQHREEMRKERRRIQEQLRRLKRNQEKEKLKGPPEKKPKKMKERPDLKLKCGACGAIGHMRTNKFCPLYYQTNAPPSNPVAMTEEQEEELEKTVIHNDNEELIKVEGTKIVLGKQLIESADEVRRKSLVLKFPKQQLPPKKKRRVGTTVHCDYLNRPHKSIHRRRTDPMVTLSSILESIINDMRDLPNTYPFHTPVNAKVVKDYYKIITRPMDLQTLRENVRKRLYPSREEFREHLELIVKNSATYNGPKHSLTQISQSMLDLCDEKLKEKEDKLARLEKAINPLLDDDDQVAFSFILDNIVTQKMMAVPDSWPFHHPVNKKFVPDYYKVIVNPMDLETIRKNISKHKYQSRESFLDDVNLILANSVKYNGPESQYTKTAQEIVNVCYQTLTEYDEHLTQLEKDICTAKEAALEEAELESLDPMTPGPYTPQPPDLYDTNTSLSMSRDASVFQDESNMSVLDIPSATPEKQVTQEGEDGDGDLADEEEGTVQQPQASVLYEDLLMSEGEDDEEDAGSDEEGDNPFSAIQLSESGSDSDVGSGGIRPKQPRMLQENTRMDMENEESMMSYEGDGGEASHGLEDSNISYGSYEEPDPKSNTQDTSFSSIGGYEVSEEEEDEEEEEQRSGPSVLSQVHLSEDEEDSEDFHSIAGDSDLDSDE

As for `Cc1cc(F)cc(C)c1Oc1ccc(C(C)(C)O)cc1-c1cn(C)c(=O)c2cc(-c3cnc(C4CCCCC4)[nH]3)oc12`, the figures for the concentration for half-maximal inhibition (IC50) in data set [1], in data set [6] and in data set [10] were 1.44 nM, 11.1 nM and 12.8 nM, respectively. Further, the ΔTm in [2] is 1 °C; in [4] it was -1.25 °C; in [5] it was 1 °C; in data set [8] it was -1.25 °C; in data set [14] it was -1 °C. Moreover, the Kd in [3] was found to be 9780 nM; in data set [7] it was 126 nM; in data set [9], 3310 nM; in data set [11], 195 nM; in [12] it was 1070 nM; in [13], 89.5 nM. Also, the Kd in [15] worked out at 44.2 nM.

`Cc1cc(F)cc(C)c1Oc1ccc(C(C)(C)O)cc1-c1cn(C)c(=O)c2cc(-c3cnc(C4CCCC4)[nH]3)oc12`: the ΔTm in data set [2] was 1 °C; in data set [4], -1 °C; in [5], 1 °C; in data set [8] it was -1.5 °C. The Kd is 1330 nM in [3]; 23.5 nM in data set [7]; 3670 nM in data set [9]; 38.8 nM in data set [11]; 1200 nM in [12]; 26.3 nM in data set [13]. The half-inhibitory concentration (IC50) in [6] was 5.09 nM; in data set [16], 1000 nM; in [18] it was 1000 nM; in data set [10] it was 5.31 nM; in data set [20] (Homo sapiens, MV4-11, 120 h) it was 0.549 nM; in data set [20] (mv4-11), 0.55 nM. In addition, the CLhep predicted at 1 µM in data set [17] is 17.9 mL/min/kg. Moreover, the CLH in data set [17] (1 h, 1 µM) was 0.043 mL/min/g. Also, the half-life at 1 µM in data set [19] is 58.3 min; in data set [21], 15.2 min.

Turning to `Cc1cc(F)cc(C)c1Oc1ccc(C(C)(C)O)cc1-c1cn(C)c(=O)c2cc(-c3cnc(C4CCC4)[nH]3)oc12`, half-maximal inhibition in data set [1] (IC50) was put at 0.52 nM. Further, the shift in melting temperature (ΔTm) is 0.75 °C in data set [2]; -1 °C in [4]; 0.5 °C in data set [5]; -1.5 °C in [8]; -1 °C in [14].

In data set [1], `Cc1cc(F)cc(C)c1Oc1ccc(C(C)(C)O)cc1-c1cn(C)c(=O)c2cc(-c3cnc(C4CC4)[nH]3)oc12` returned an IC50 of 0.59 nM. Further, the shift in melting temperature (ΔTm) was -0.25 °C in [2]; -1.25 °C in data set [4]; 0.75 °C in [5]; -2 °C in data set [8]; -1.25 °C in data set [14].

The values are drawn from ChEMBL document CHEMBL5154816, “Structure-Based Discovery and Optimization of Furo[3,2-c]pyridin-4(5H)-one Derivatives as Potent and Second Bromodomain (BD2)-Selective Bromo and Extra Terminal Domain (BET) Inhibitors” (J Med Chem, 2022).
